Reference: patent US9290791B2, “Reagents and methods for sirtuin capture” (CORNELL UNIVERSITY, priority 2010, dated 2016)

Key:
SirT1 [1] = biological target: T1, SirT1 (Homo sapiens, UniProt Q96EB6); assay: Sirtuin inhibitor screening pulldown assay (NAD+, azido-thiotripeptide, alkynyl-biotin; SDS-PAGE, silver stain); assay type: biochemical; conditions: 500 μM inhibitor; sirtuin mixture, 5 μM SirT1, 500 μM NAD+, 200 μM 4-azido-BzlK(AcS)AAOMe; FIG. 10
Procedure: (§1) The key criterion for our pulldown technology is the formation of a stalled thioimidate complex with a cross-linkable moiety at the active site on sirtuins. If the presence of a sirtuin inhibitor can interrupt thioimidate formation, there will be less or no sirtuin can be harvested later on.
(§2) Pulldown assay: a typical reaction was performed in 100 mM phosphate buffer pH 7.5 in a total volume of 100 μL. Each reaction contained 500 μM of NAD^+, 200 μM of 4-azido-BzlK(AcS)AAOMe, and various concentrations of potential inhibitors. One control experiment which contained 500 μM of NAD^+ only were run at the same time. Reactions were initiated by addition of enzymes with final concentrations: 5 μM for SirT1, 3.4 μM for SirT2, 4.9 μM for SirT3, 5.04 μM for SirT5 and 5.35 μM for SirT6. Reactions were incubated at 37° C. for 30 min and then alkynyl-biotin was added to each sample to a final concentration of 500 μM followed by 3 μL of freshly premixed click chemistry cocktail: CuSO4 (final concentration 1 mM), tris[(1-benzyl-1H-1,2,3-triazol-4-yl)methyl]amine (TBTA, final concentration 600 μM) and tris(2-carboxyethyl)phosphine hydrochloride (TCEP, final concentration 2 mM). The samples were incubated at room temperature for 30 min. Then, 50 μL streptavidin beads (pretreated with 1 mM of BSA) were added to each sample and the incubation were continued at room temperature for 1 h. […]

SirT5 = biological target: T2, SirT5 (Homo sapiens, UniProt Q9NXA8); assay: as above; assay type: biochemical; conditions: 500 μM inhibitor; sirtuin mixture, 5.04 μM SirT5, 500 μM NAD+, 200 μM 4-azido-BzlK(AcS)AAOMe; FIG. 10
T2 construct: SirT5(34-302); poly histidine tag (N); made in house; host or cells: E. coli BL21-CodonPlus(DE3)-RIPL
T2 sequence (Q9NXA8 34-302): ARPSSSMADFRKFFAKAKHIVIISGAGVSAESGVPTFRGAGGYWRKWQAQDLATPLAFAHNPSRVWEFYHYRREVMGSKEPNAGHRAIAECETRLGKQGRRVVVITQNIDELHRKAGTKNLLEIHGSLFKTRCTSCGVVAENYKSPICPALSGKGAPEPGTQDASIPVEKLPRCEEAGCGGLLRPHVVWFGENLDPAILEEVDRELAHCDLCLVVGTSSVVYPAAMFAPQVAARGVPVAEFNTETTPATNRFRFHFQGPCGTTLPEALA
Procedure: as §1, §2

SirT3 = biological target: T3, SirT3 (Homo sapiens, UniProt Q9NTG7); assay: as above; assay type: biochemical; conditions: 500 μM inhibitor; sirtuin mixture, 4.9 μM SirT3, 500 μM NAD+, 200 μM 4-azido-BzlK(AcS)AAOMe; FIG. 10
T3 construct: poly histidine tag (N); made in house; host or cells: E. coli BL21-CodonPlus(DE3)-RIPL
T3 sequence (Q9NTG7 1-399): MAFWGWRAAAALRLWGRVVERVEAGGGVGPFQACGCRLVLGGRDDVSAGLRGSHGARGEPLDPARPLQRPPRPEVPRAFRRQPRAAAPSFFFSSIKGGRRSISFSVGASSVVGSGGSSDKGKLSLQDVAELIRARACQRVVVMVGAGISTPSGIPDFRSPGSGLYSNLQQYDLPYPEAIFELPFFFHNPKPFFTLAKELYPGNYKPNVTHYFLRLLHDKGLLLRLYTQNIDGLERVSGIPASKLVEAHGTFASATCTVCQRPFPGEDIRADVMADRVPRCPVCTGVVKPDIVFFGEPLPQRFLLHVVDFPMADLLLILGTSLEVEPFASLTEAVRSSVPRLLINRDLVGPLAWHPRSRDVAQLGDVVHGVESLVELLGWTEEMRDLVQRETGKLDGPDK
Procedure: as §1, §2

SirT1 [2] = biological target: T1, SirT1; assay: HPLC deacetylation assay of SirT1 with p53mer; assay type: biochemical; conditions: 3 μM SirT1, 500 μM NAD+, 300 μM p53mer, various concentrations of suramin; FIG. 11
Procedure: HPLC assay: reactions were performed in 100 mM phosphate buffer pH 7.5 in a total volume of 50 μL. Each reaction contained 500 μM of NAD^+, 300 μM of p53mer and various concentrations of suramin. Reactions were initiated by addition of SirT1 to a final concentration of 3 μM. A negative control which contained 500 μM of NAD^+ and 300 μM of p53mer, but was quenched by addition of TFA before the addition of enzyme was run at the same time. The reactions were incubated at 37° C. for 20 min before being quenched by 8 of 10% TFA. The samples were then injected on an HPLC fitted to a Macherey-Nagel Nucleosil C18 column. AADPR, NAD^+ and NAM peaks were resolved using a gradient of 0 to 10% methanol in 20 mM ammonium acetate. Chromatograms were analyzed at 260 nm.

sirtuin = conditions: known sirtuin inhibitor; cited from earlier work
[3] = tested on: class III HDACs (sirtuins); assay: Sirtuin inhibitor screening pulldown assay on sirtuin mixture; assay type: biochemical; conditions: 20 μM inhibitor; mixture of SirT1, SirT2, SirT3, SirT5, SirT6; FIG. 10
Procedure: as §1, §2

T1 sequence (Q96EB6 whole entry, species assumed): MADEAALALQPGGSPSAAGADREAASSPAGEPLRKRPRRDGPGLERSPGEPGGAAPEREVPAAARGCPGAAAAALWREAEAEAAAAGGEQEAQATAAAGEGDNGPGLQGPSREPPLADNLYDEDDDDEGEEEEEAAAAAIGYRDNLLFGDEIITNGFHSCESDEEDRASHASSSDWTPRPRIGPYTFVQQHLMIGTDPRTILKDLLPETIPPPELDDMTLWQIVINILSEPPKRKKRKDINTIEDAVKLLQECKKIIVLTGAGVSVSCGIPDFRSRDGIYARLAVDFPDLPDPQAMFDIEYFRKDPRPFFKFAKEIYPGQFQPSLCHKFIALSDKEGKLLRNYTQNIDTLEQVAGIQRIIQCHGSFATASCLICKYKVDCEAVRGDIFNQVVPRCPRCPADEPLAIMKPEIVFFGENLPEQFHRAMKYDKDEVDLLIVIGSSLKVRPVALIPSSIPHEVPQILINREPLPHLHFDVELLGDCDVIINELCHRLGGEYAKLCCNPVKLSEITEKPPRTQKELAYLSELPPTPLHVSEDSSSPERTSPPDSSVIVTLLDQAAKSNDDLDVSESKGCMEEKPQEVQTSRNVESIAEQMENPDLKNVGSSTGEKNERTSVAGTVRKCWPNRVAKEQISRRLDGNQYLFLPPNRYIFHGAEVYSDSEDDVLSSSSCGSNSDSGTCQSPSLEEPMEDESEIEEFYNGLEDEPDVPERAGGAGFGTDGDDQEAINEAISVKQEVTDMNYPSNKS

Cc1ccc(C(=O)Nc2ccc(S(=O)(=O)O)c3cc(S(=O)(=O)O)cc(S(=O)(=O)O)c23)cc1NC(=O)c1cccc(NC(=O)Nc2cccc(C(=O)Nc3cc(C(=O)Nc4ccc(S(=O)(=O)O)c5cc(S(=O)(=O)O)cc(S(=O)(=O)O)c45)ccc3C)c2)c1 [Suramin, suramin]
SirT1 captured by standard pulldown assay (SirT1 [1]): less | SirT5 captured by standard pulldown assay (SirT5): less | SirT3 captured by standard pulldown assay (SirT3): less | inhibition confirmed by HPLC assay (SirT1 [2]): confirmed | IC50 (sirtuin): low micromolar range

CC(/C=C/C(=O)NO)=C\[C@@H](C)C(=O)c1ccc(N(C)C)cc1 [TSA, trichostatin A]
effect on sirtuin capture in pulldown assay [3]: no effects
